This assay deals with Human acute myelocytic leukemia cells HL-60. Briefly: Inhibitory activity on tumor cells, viable cell count by modified Mosmann (MTT) method. The assay is classed as cell-based. The note with it: HL-60 cells, 50,000 cells/well, 24 hours culture with compound, then MTT 3 hours; average of at least triplicate; read-out: IC50 (fifty percent inhibitory concentration). As to the method: The cells were washed with PBS.
Formazan crystals formed by the enzyme activity of mitochondria in the cells were dissolved in 0.04 mol/HCl/isopropyl alcohol.

For `CP(c1nc2ccccc2nc1P(C)C(C)(C)C)C(C)(C)C.CP(c1nc2ccccc2nc1P(C)C(C)(C)C)C(C)(C)C.[Au+].[Cl-]` (stereo not shown) [Example 1, bis(2,3-bis(t-butylmethylphosphino)quinoxaline)gold (I) chloride], the IC50 came out at 517 nM.

Values taken from patent publication US8278303B2, “Phosphine transition metal complex, process for producing same, and anticancer agent” (Nippon Chemical Industrial Co., Ltd., priority 2006, dated 2012).
